Test results from ChEMBL document CHEMBL3774345, “Synthesis of new diarylamides with pyrimidinyl pyridine scaffold and evaluation of their anti-proliferative effect on cancer cell lines” (Bioorg Med Chem Lett, 2016).

Experiments:
Assay type in all cases: functional
[1] = Cytotoxicity against human HOP62 cells assessed as cell growth at 10 uM after 24 hrs by SRB assay; conditions: HOP-62, 24 h, read-out: Activity
[2] = Cytotoxicity against human SF539 cells assessed as cell growth at 10 uM after 24 hrs by SRB assay; conditions: SF-539, 24 h, read-out: Activity
786-0 = experiment: Cytotoxicity against human 786-0 cells assessed as cell growth at 10 uM after 24 hrs by SRB assay; conditions: 786-0, 24 h, read-out: Activity
[3] = Cytotoxicity against human TK10 cells assessed as cell growth at 10 uM after 24 hrs by SRB assay; conditions: TK-10, 24 h, read-out: Activity
[4] = Cytotoxicity against human RXF393 cells assessed as cell growth at 10 uM after 24 hrs by SRB assay; conditions: RXF 393, 24 h, read-out: Activity
MDA-MB-468 = experiment: Cytotoxicity against human MDA-MB-468 cells assessed as cell growth at 10 uM after 24 hrs by SRB assay; conditions: MDA-MB-468, 24 h, read-out: Activity
[5] = Cytotoxicity against human RPMI8226 cells assessed as cell growth at 10 uM after 24 hrs by SRB assay; conditions: RPMI-8226, 24 h, read-out: Activity
[6] = Cytotoxicity against human UACC62 cells assessed as cell growth at 10 uM after 24 hrs by SRB assay; conditions: UACC-62, 24 h, read-out: Activity
CCRF-CEM = experiment: Cytotoxicity against human CCRF-CEM cells assessed as cell growth at 10 uM after 24 hrs by SRB assay; conditions: read-out: Activity
EKVX = experiment: Cytotoxicity against human EKVX cells assessed as cell growth at 10 uM after 24 hrs by SRB assay; conditions: read-out: Activity
[7] = Cytotoxicity against human OVCAR3 cells assessed as cell growth at 10 uM after 24 hrs by SRB assay; conditions: OVCAR-3, 24 h, read-out: Activity
T47D = experiment: Cytotoxicity against human T47D cells assessed as cell growth at 10 uM after 24 hrs by SRB assay; conditions: read-out: Activity
NCI-H460 = experiment: Cytotoxicity against human NCI-H460 cells assessed as cell growth at 10 uM after 24 hrs by SRB assay; conditions: NCI-H460, 24 h, read-out: Activity
M14 = experiment: Cytotoxicity against human M14 cells assessed as cell growth at 10 uM after 24 hrs by SRB assay; conditions: M14, 24 h, read-out: Activity
[8] = Cytotoxicity against human IGROV1 cells assessed as cell growth at 10 uM after 24 hrs by SRB assay; conditions: IGROV-1, 24 h, read-out: Activity
A498 = experiment: Cytotoxicity against human A498 cells assessed as cell growth at 10 uM after 24 hrs by SRB assay; conditions: A498, 24 h, read-out: Activity
[9] = Cytotoxicity against human HCC2998 cells assessed as cell growth at 10 uM after 24 hrs by SRB assay; conditions: HCC 2998, 24 h, read-out: Activity
[10] = Cytotoxicity against human PC3 cells assessed as cell growth at 10 uM after 24 hrs by SRB assay; conditions: PC-3, 24 h, read-out: Activity
MCF7 = experiment: Cytotoxicity against human MCF7 cells assessed as cell growth at 10 uM after 24 hrs by SRB assay; conditions: MCF7, 24 h, read-out: Activity
[11] = Cytotoxicity against human UO31 cells assessed as cell growth at 10 uM after 24 hrs by SRB assay; conditions: UO-31, 24 h, read-out: Activity
[12] = Cytotoxicity against human OVCAR8 cells assessed as cell growth at 10 uM after 24 hrs by SRB assay; conditions: OVCAR-8, 24 h, read-out: Activity
[13] = Cytotoxicity against human HCT116 cells assessed as cell growth at 10 uM after 24 hrs by SRB assay; conditions: HCT-116, 24 h, read-out: Activity
HT-29 = experiment: Cytotoxicity against human HT-29 cells assessed as cell growth at 10 uM after 24 hrs by SRB assay; conditions: HT-29, 24 h, read-out: Activity
[14] = Cytotoxicity against human LOXIMVI cells assessed as cell growth at 10 uM after 24 hrs by SRB assay; conditions: LOX IMVI, read-out: Activity
NCI-H322M = experiment: Cytotoxicity against human NCI-H322M cells assessed as cell growth at 10 uM after 24 hrs by SRB assay; conditions: read-out: Activity
KM12 = experiment: Cytotoxicity against human KM12 cells assessed as cell growth at 10 uM after 24 hrs by SRB assay; conditions: KM12, 24 h, read-out: Activity
[15] = Cytotoxicity against human OVCAR4 cells assessed as cell growth at 10 uM after 24 hrs by SRB assay; conditions: OVCAR-4, 24 h, read-out: Activity
[16] = Cytotoxicity against human Hs 578T cells assessed as cell growth at 10 uM after 24 hrs by SRB assay; conditions: read-out: Activity
MDA-MB-231 = experiment: Cytotoxicity against human MDA-MB-231 cells assessed as cell growth at 10 uM after 24 hrs by SRB assay; conditions: MDA-MB-231, 24 h, read-out: Activity
[17] = Cytotoxicity against human COLO205 cells assessed as cell growth at 10 uM after 24 hrs by SRB assay; conditions: COLO 205, 24 h, read-out: Activity
[18] = Cytotoxicity against human HOP92 cells assessed as cell growth at 10 uM after 24 hrs by SRB assay; conditions: HOP-92, 24 h, read-out: Activity
Malme-3M = experiment: Cytotoxicity against human MALME-3M cells assessed as cell growth at 10 uM after 24 hrs by SRB assay; conditions: read-out: Activity
A549 = experiment: Cytotoxicity against human A549 cells assessed as cell growth at 10 uM after 24 hrs by SRB assay; conditions: A549, 24 h, read-out: Activity
[19] = Cytotoxicity against human SNB19 cells assessed as cell growth at 10 uM after 24 hrs by SRB assay; conditions: SNB-19, 24 h, read-out: Activity
U-251 = experiment: Cytotoxicity against human U251 cells assessed as cell growth at 10 uM after 24 hrs by SRB assay; conditions: U-251, 24 h, read-out: Activity
SK-MEL-2 = experiment: Cytotoxicity against human SK-MEL-2 cells assessed as cell growth at 10 uM after 24 hrs by SRB assay; conditions: SK-MEL-2, 24 h, read-out: Activity
[20] = Cytotoxicity against human SKOV3 cells assessed as cell growth at 10 uM after 24 hrs by SRB assay; conditions: SK-OV-3, 24 h, read-out: Activity
SK-MEL-5 = experiment: Cytotoxicity against human SK-MEL-5 cells assessed as cell growth at 10 uM after 24 hrs by SRB assay; conditions: SK-MEL-5, 24 h, read-out: Activity
MDA-MB-435 = experiment: Cytotoxicity against human MDA-MB-435 cells assessed as cell growth at 10 uM after 24 hrs by SRB assay; conditions: MDA-MB-435, 24 h, read-out: Activity

SMILES | growth at 10 µM [1] | growth at 10 µM [2] | growth at 10 µM (786-0) | growth at 10 µM [3] | growth at 10 µM [4] | growth at 10 µM (MDA-MB-468) | growth at 10 µM [5] | growth at 10 µM [6] | growth at 10 µM (CCRF-CEM) | growth at 10 µM (EKVX) | growth at 10 µM [7] | growth at 10 µM (T47D) | growth at 10 µM (NCI-H460) | growth at 10 µM (M14) | growth at 10 µM [8] | growth at 10 µM (A498) | growth at 10 µM [9] | growth at 10 µM [10] | growth at 10 µM (MCF7) | growth at 10 µM [11] | also measured
O=C(Nc1cc(-c2cccnc2)nc(NCCCN2CCOCC2)n1)c1ccc(F)cc1Cl | 95.5% | 101% | 89.2% | 97.1% | 102% | 93.5% | 90% | 105% | 88.3% | 102% | 106% | 99.5% | 94.8% | 102% | 95.9% | 81.2% | 98.4% | 91.2% | 87.4% | 77% | growth at 10 µM [12]: 94.2%; growth at 10 µM [13]: 106%; growth at 10 µM (HT-29): 87.3%; growth at 10 µM [14]: 96.5%; growth at 10 µM (NCI-H322M): 88.2%; growth at 10 µM (KM12): 104%; growth at 10 µM [15]: 115%; growth at 10 µM [16]: 105%; growth at 10 µM (MDA-MB-231): 93.2%; growth at 10 µM [17]: 99.5%; growth at 10 µM [18]: 91.2%; growth at 10 µM (Malme-3M): 108%; growth at 10 µM (A549): 102%; growth at 10 µM [19]: 94.2%; growth at 10 µM (U-251): 92%; growth at 10 µM (SK-MEL-2): 91.3%; growth at 10 µM [20]: 101%; growth at 10 µM (SK-MEL-5): 88%; growth at 10 µM (MDA-MB-435): 106%
COCCCNc1nc(NC(=O)c2cc(OC)cc(OC)c2)cc(-c2cccnc2)n1 | 91.3% | 88.9% | 83.3% | 86.7% | 97.7% | 94.8% | 69.3% | 111% | 91.7% | 105% | 113% | 63.8% | 95.2% | 107% | 102% | 67.7% | 110% | 87.3% | 97.8% | 56.7% | growth at 10 µM [12]: 79.3%; growth at 10 µM [13]: 90.3%; growth at 10 µM (HT-29): 95.5%; growth at 10 µM [14]: 94.5%; growth at 10 µM (NCI-H322M): 92.8%; growth at 10 µM (KM12): 103%; growth at 10 µM [15]: 108%; growth at 10 µM [16]: 95.3%; growth at 10 µM (MDA-MB-231): 69.1%; growth at 10 µM [17]: 109%; growth at 10 µM [18]: 52.6%; growth at 10 µM (Malme-3M): 112%; growth at 10 µM (A549): 91.2%; growth at 10 µM [19]: 98.3%; growth at 10 µM (U-251): 96.8%; growth at 10 µM (SK-MEL-2): 78.8%; growth at 10 µM [20]: 105%; growth at 10 µM (SK-MEL-5): 72.4%; growth at 10 µM (MDA-MB-435): 100%
